One test deals with PDE10A (Homo sapiens (Human), UniProt Q9Y233). Nature of the test: PDE10A inhibition assay. It is filed as biochemical. On the procedure: Active PDE10A enzyme is prepared in a number of ways for use in PDE assays (Loughney, K. et al. Gene 1999, 234, 109-117; Fujishige, K. et al. Eur J Biochem. 1999, 266, 1118-1127 and Soderling, S. et al. Proc. Natl. Acad. Sci. 1999, 96, 7071-7076). PDE10A can be expressed as full-length proteins or as truncated proteins, as long as they express the catalytic domain. PDE10A can be prepared in different cell types, for example insect cells or E. coli. […]
Chain of PDE10A (Q9Y233 716-1055): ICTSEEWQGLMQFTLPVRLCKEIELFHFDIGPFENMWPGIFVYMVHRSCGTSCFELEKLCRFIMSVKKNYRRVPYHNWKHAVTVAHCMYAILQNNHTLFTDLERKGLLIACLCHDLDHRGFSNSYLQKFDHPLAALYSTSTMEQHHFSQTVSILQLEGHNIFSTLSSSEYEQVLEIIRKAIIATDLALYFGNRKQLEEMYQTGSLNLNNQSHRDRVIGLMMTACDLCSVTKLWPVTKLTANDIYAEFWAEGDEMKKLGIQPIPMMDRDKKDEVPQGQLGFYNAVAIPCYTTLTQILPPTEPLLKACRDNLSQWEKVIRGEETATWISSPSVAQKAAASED
A PDE10A assay may for example, be performed as follows: The assay is performed in 60 uL samples containing a fixed amount of the relevant PDE enzyme (sufficient to convert 20-25% of the cyclic nucleotide substrate), a buffer (50 mM HEPES7.6; 10 mM MgCl2; 0.02% Tween20), 0.1 mg/ml BSA, 225 pCi of ^3H-labelled cyclic nucleotide substrate, tritium labeled cAMP to a final concentration of 5 nM and varying amounts of inhibitors. […] The beads are allowed to settle for one hr in the dark before the plates are counted in a Wallac 1450 Microbeta counter. The measured signal can be converted to activity relative to an uninhibited control (100%) and IC50 values can be calculated using the Xlfit extension to EXCEL.

The test system of the next test is rats. Conditions: cited from earlier work.

By IC50 is commonly meant the midpoint of a concentration-inhibition curve. Consider `COc1cccn2nc(/C=C/c3nc(-c4ccc(C)o4)cn3C)nc12` [8-Methoxy-2-{(E)-2-[1-methyl-4-(5-methyl-furan-2-yl)-1H-imidazol-2-yl]-vinyl}-[1,2,4]triazolo[1,5-a]pyridine], for which it took 140 nM to reach half-maximal inhibition against PDE10A (IC50). Same read-out and setting: in the case of `Cc1cccn2nc(CCc3nc(-c4cccnc4)cn3C)nc12` [8-Methyl-2-[2-(1-methyl-4-pyridin-3-yl-1H-imidazol-2-yl)-ethyl]-[1,2,4]triazolo[1,5-a]pyridine] it was 75 nM. For `COc1ccc(Cc2nccc3cc(OC)c(OC)cc23)cc1OC` [Papaverine, papaverine], in the test with rats (papaverine alone), the “catalepsy on its own” value is recorded as “did not cause catalepsy”. Further, the “effect on the cataleptic effect of the D2 receptor antagonist haloperidol” value in the test with rats (with haloperidol) is reported as “potentiated”.

The record behind these values is patent publication US9669029B2, “Heteroaromatic phenylimidazole derivatives as PDE10A enzyme inhibitors” (H. Lundbeck A/S, priority 2009, dated 2017).
